Reference: publication PMC7082118 (Oncotarget, 2020)
Where two headings read alike, the source gives them in different places.

Columns and labels:
CSF1R/FMS = molecular target: T1, CSF1R/FMS (Homo sapiens, UniProt P07333); test: KINOMEscan kinase binding assay
T1 construct: purchased Eurofins (KINOMEscan service)
Experimental: (§1) Kd values were calculated from duplicate 11-point dose-response curves.
(§2) KINOMEscan kinase binding assays were performed at a Eurofins laboratory as previously described.

FLT1 = molecular target: T2, FLT1 (Homo sapiens, UniProt P17948); test: KINOMEscan kinase binding assay
T2 construct: purchased Eurofins (KINOMEscan service)
Experimental: as §1, §2

FLT4 = molecular target: T3, FLT4 (Homo sapiens, UniProt P35916); test: KINOMEscan kinase binding assay
T3 construct: purchased Eurofins (KINOMEscan service)
Experimental: as §1, §2

KDR/VEGFR2 = molecular target: T4, KDR/VEGFR2 (Homo sapiens, UniProt P35968); test: KINOMEscan kinase binding assay
T4 construct: purchased Eurofins (KINOMEscan service)
T4 sequence (P35968 20-1356): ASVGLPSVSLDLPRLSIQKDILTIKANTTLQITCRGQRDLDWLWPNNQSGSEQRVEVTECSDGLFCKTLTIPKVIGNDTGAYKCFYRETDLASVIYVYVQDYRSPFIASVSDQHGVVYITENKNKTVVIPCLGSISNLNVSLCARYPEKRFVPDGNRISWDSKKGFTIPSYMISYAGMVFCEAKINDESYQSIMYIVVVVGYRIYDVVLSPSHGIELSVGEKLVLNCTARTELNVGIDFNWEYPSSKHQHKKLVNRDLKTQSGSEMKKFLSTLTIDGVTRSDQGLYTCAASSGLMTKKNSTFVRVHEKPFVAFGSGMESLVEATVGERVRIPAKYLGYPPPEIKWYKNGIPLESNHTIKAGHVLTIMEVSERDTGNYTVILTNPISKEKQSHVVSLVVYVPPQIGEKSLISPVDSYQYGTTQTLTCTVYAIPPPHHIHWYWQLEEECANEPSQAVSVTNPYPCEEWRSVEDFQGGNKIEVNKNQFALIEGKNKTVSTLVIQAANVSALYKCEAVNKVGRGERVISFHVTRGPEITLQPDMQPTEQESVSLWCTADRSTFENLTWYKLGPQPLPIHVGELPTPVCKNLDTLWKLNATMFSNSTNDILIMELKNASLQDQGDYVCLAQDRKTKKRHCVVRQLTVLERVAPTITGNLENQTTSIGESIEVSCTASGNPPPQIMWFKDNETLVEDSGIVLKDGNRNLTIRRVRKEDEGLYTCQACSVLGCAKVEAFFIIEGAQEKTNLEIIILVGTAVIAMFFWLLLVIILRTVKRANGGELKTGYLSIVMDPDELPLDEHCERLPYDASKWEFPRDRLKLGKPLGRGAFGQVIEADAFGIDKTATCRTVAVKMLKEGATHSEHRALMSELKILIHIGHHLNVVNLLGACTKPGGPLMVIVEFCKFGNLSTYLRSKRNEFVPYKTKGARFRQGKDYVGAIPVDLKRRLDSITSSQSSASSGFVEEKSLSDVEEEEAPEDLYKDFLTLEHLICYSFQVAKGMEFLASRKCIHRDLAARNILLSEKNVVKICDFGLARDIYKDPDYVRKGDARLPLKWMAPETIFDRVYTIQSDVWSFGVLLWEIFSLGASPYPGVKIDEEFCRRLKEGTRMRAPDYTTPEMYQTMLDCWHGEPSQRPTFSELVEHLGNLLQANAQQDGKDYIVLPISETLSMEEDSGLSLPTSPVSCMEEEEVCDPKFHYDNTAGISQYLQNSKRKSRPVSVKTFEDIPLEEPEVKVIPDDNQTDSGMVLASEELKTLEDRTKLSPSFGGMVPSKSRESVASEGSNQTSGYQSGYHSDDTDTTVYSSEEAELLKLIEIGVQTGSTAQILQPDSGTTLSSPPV
Experimental: as §1, §2

KIT = molecular target: T5, KIT (Homo sapiens, UniProt P10721); test: KINOMEscan kinase binding assay; conditions: kinase KIT
T5 construct: purchased Eurofins (KINOMEscan service)
Experimental: as §1, §2

MEK5 = molecular target: T6, MEK5 (Homo sapiens, UniProt Q13163); test: KINOMEscan kinase binding assay; conditions: kinase MEK5 (Entrez MAP2K5)
T6 construct: purchased Eurofins (KINOMEscan service)
T6 sequence (Q13163 whole entry): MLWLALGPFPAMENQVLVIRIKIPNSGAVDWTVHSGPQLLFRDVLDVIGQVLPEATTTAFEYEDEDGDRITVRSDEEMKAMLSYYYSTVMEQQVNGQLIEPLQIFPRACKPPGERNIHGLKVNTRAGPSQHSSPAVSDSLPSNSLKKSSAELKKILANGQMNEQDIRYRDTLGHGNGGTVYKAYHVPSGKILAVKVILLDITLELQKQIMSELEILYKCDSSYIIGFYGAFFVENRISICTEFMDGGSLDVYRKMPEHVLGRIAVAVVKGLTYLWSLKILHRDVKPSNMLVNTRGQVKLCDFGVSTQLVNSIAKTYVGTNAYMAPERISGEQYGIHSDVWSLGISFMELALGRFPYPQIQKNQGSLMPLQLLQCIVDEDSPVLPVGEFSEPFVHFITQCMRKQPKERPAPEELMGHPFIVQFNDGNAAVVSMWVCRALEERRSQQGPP
Experimental: as §1, §2

PDGFRα = molecular target: T7, PDGFRα (Homo sapiens, UniProt P16234); test: KINOMEscan kinase binding assay; conditions: kinase PDGFRA (PDGFRA)
T7 construct: purchased Eurofins (KINOMEscan service)
T7 sequence (P16234 24-1089): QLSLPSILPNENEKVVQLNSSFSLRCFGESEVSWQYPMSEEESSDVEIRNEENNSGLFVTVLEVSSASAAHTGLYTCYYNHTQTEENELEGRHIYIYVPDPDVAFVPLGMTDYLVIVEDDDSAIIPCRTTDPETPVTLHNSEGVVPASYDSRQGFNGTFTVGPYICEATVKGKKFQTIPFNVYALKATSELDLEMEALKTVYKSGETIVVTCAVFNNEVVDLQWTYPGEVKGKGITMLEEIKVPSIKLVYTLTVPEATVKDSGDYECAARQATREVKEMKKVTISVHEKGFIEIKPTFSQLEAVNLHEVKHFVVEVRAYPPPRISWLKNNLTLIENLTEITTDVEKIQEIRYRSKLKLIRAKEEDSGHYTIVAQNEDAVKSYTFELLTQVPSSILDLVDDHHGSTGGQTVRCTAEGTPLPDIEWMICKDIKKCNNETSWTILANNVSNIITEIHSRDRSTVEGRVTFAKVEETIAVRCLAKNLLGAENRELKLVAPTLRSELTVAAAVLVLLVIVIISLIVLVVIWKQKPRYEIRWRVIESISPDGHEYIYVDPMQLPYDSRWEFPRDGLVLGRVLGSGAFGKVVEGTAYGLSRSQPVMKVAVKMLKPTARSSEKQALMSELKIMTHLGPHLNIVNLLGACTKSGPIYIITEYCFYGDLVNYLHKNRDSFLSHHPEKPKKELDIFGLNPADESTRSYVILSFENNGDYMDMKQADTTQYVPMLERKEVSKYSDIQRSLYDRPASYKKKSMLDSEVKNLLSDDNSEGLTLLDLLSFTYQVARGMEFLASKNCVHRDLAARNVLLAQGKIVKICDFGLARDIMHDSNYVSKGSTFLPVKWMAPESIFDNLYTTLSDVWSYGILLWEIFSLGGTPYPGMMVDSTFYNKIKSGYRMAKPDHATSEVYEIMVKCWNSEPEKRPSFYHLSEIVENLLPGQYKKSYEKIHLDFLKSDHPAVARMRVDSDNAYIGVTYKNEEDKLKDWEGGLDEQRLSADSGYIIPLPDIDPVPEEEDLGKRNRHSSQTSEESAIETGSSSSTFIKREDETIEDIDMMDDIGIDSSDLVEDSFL
Experimental: as §1, §2

PDGFRβ = molecular target: T8, PDGFRβ (Homo sapiens, UniProt P09619); test: KINOMEscan kinase binding assay; conditions: kinase PDGFRB (PDGFRB)
T8 construct: purchased Eurofins (KINOMEscan service)
T8 sequence (P09619 33-1106): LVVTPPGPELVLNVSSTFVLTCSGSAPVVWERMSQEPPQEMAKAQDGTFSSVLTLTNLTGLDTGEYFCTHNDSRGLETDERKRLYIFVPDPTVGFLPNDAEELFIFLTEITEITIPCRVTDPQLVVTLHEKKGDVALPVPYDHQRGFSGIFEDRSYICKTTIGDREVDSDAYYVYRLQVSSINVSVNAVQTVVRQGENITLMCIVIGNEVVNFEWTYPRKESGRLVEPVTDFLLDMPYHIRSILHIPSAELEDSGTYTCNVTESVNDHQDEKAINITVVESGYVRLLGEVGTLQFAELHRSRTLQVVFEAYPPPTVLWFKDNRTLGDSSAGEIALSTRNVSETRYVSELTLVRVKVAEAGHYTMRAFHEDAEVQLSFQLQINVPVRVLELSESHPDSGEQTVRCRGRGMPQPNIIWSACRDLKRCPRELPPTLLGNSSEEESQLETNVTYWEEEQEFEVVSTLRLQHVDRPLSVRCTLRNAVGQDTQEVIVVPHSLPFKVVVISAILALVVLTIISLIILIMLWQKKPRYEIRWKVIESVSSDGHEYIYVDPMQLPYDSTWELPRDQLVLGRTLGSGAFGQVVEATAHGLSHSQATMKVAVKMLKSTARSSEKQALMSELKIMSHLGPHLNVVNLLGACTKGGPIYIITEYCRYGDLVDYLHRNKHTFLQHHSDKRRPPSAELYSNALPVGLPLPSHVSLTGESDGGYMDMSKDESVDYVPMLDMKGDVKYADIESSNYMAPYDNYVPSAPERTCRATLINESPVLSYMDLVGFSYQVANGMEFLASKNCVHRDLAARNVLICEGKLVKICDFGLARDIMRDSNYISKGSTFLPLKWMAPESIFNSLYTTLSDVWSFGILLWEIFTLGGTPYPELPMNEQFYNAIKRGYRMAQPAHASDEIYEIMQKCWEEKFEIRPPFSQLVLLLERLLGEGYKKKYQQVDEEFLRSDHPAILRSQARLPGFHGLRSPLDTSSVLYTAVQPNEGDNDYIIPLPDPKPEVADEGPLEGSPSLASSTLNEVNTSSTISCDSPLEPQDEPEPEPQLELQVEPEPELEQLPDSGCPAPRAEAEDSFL
Experimental: as §1, §2

RET = molecular target: T9, RET (Homo sapiens, UniProt P07949); test: KINOMEscan kinase binding assay
T9 construct: purchased Eurofins (KINOMEscan service)
Experimental: as §1, §2

ULK2 = molecular target: T10, ULK2 (Homo sapiens, UniProt Q8IYT8); test: KINOMEscan kinase binding assay; conditions: kinase ULK2 (ULK2)
T10 construct: purchased Eurofins (KINOMEscan service)
T10 sequence (Q8IYT8 1-1036): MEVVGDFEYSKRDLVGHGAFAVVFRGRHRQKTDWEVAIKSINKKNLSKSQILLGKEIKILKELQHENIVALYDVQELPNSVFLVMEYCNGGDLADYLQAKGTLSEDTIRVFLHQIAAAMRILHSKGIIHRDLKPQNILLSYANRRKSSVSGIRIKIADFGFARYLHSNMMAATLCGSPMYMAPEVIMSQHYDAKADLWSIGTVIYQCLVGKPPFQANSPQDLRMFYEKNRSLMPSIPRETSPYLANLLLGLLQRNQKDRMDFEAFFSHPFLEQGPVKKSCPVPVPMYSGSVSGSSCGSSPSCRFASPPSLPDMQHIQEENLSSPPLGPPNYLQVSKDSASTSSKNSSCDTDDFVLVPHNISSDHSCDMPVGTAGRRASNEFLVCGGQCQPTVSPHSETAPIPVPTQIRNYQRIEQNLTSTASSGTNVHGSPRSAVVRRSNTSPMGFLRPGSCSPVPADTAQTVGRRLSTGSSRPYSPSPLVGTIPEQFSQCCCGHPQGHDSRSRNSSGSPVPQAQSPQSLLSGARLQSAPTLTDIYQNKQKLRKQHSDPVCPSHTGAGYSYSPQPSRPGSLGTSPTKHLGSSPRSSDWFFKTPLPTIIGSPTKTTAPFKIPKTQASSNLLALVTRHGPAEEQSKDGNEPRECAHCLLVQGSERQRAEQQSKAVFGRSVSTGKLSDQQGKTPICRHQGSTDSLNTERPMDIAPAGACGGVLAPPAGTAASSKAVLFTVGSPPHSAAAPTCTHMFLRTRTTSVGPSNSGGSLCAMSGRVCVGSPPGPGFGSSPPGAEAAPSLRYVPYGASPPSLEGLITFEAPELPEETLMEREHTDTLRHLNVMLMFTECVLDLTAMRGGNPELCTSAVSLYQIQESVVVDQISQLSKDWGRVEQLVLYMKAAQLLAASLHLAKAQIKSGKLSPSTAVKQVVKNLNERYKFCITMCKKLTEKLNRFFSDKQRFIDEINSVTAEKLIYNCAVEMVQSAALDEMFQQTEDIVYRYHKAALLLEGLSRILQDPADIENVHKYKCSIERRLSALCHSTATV
Experimental: as §1, §2

FLT3 signaling = test: FLT3 inhibitor washout experiment in MOLM-14 cells; assay type: cell-based, human
EOL-1 cells = test: Cell viability assay (CellTiter-Glo 2.0); assay type: cell-based, human; conditions: Homo sapiens, EOL1, 72 h; EOL-1, wild-type FLT3 with FIP1L-PDGFRα, 3 days
Experimental: (§3) Human AML cell lines MV4-11, Kasumi-1, HL-60, and THP-1 were purchased from the American Type Culture Collection (Manassas, Virginia, USA). MV4-11 cells were cultured in Iscove’s Modified Dulbecco’s Medium (IMDM; Thermo Fisher Scientific, Waltham, Massachusetts, USA) supplemented with 10% (vol/vol) heat-inactivated fetal bovine serum (FBS; GE Healthcare Ltd, Chicago, Illinois, USA). […] HL-60 cells were cultured in IMDM supplemented with 20% (vol/vol) heat-inactivated FBS. […] Human AML cell lines, MOLM-13, MOLM-14, EOL-1, and OCI-AML3, were purchased from Leibniz-Institut DSMZ-Deutsche Sammlung von Mikroorganismen und Zellkulturen GmbH.
(§4) The amount of ATP in viable cells was quantified as a luminescent signal using the CellTiter-Glo 2.0 Assay (Promega Corporation, Madison, Wisconsin, USA) and EnVision (PerkinElmer Inc, Waltham, Massachusetts, USA) to determine the number of viable cells according to the manufacturers’ instructions.

HL-60 cells = test: Cell viability assay (CellTiter-Glo 2.0); assay type: cell-based, human; conditions: Homo sapiens, 72 h; HL-60, wild-type FLT3, 3 days
Experimental: as §3, §4

Kasumi-1 cells = test: Cell viability assay (CellTiter-Glo 2.0); assay type: cell-based, human; conditions: Homo sapiens, Kasumi 1, 72 h
Experimental: as §3, §4

MOLM-13 cells = test: Cell viability assay (CellTiter-Glo 2.0); assay type: cell-based, human; conditions: Homo sapiens
Experimental: as §3, §4

MOLM-14 cells = test: Cell viability assay (CellTiter-Glo 2.0); assay type: cell-based, human; conditions: Homo sapiens, MOLM-14, 72 h, 3 days, read-out: IC50, cell viability
Experimental: as §3, §4

MV4-11 cells = test: Cell viability assay (CellTiter-Glo 2.0); assay type: cell-based, human; conditions: Homo sapiens, 72 h; MV4-11, FLT3-ITD, 3 days
Experimental: as §3, §4

OCI-AML3 cells = test: Cell viability assay (CellTiter-Glo 2.0); assay type: cell-based, human; conditions: Homo sapiens, OCI-AML-3, 72 h; OCI-AML3, wild-type FLT3, 3 days; read-out: IC50, cell viability
Experimental: as §3, §4

THP-1 cells = test: Cell viability assay (CellTiter-Glo 2.0); assay type: cell-based, human; conditions: Homo sapiens, 72 h; THP-1, wild-type FLT3, 3 days; read-out: IC50, cell viability
Experimental: as §3, §4

MOLM-14-MR2 tumors = test: MOLM-14-MR2 xenograft mouse model; assay type: in vivo; conditions: MOLM-14-MR2 tumors (NRAS mutated), oral once per day
MOLM-14-MR cells = test: cells; conditions: Homo sapiens, 72 h, read-out: IC50, cell viability
MOLM-14-MR2 cells = test: cells; conditions: Homo sapiens, 72 h, read-out: IC50, cell viability
MOLM-13-QR cells = test: cells; conditions: Homo sapiens, read-out: IC50, cell viability
MOLM-13-QR2 cells = test: cells; conditions: Homo sapiens, read-out: IC50, cell viability
[1] = system: midostaurin-resistant MOLM-14 cells; test: cells; conditions: Homo sapiens, MOLM-14, read-out: IC50 against midostaurin-resistant MOLM-14 cells
MV4-11 tumors = test: MV4-11 xenograft mouse model; conditions: Figure 3B

T1 sequence (P07333 20-972): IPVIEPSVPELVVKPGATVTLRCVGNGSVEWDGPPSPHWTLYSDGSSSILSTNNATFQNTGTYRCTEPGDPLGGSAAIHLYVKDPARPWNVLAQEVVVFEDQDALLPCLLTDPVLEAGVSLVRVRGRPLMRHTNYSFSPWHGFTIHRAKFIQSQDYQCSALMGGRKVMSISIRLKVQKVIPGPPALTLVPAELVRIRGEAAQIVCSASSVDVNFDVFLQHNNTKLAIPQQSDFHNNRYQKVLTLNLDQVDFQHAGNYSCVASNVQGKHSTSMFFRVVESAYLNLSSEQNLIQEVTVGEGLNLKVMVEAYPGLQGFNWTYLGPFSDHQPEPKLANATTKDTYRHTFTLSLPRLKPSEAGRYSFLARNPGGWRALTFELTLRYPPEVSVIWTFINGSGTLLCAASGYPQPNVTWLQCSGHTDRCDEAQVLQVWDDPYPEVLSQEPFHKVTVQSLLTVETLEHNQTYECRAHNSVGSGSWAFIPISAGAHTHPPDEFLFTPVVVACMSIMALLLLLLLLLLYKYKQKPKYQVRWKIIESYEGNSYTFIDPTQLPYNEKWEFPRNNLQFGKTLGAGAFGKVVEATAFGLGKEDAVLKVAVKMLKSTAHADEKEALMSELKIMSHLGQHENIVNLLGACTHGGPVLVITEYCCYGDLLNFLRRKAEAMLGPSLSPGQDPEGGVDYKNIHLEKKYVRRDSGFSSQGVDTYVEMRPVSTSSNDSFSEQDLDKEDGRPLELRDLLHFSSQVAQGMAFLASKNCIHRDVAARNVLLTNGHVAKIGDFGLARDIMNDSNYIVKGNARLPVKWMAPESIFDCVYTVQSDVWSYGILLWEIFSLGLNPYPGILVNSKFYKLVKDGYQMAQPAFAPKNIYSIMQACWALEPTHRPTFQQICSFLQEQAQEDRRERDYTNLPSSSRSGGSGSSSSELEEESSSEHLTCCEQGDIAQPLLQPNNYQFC

CCc1nc(C(N)=O)c(Nc2ccc(N3CCC(N4CCN(C)CC4)CC3)c(OC)c2)nc1NC1CCOCC1 [Gilteritinib, gilteritinib] was tested, and the Kd (CSF1R/FMS) was 46 nM, the Kd (FLT1) was 380 nM and the Kd (FLT4) was 150 nM. It also gave a Kd (KDR/VEGFR2) of 100 nM, a Kd (KIT) of 86 nM and a Kd (MEK5) of 7.8 nM. It also gave a Kd (PDGFRα) of 53 nM, a Kd (PDGFRβ) of 240 nM and a Kd (RET) of 11 nM. For the same molecule, the Kd (ULK2) was 700 nM, the “Durability of inhibition of FLT3 and ERK phosphorylation after removal of inhibitor” value (FLT3 signaling) was “no significant inhibitory activity starting 1 hour after removal” and the “Long-term durability of inhibition of FLT3 signaling after compound withdrawal” value (FLT3 signaling) was “no longer able to inhibit FLT3 signaling at 24 hours”. The IC50 (EOL-1 cells) was 30.9 nM, the IC50 (HL-60 cells) was 391 nM and the IC50 (Kasumi-1 cells) was 160 nM. It also gave an IC50 (MOLM-13 cells; 72 h, MOLM-13, FLT3-ITD, 3 days, Supplementary Table 3) of 10 nM, an IC50 (MOLM-13 cells; parental MOLM-13, FLT3-ITD, Supplementary Table 4) of 7.89 nM and an IC50 (MOLM-14 cells; MOLM-14, FLT3-ITD, Supplementary Table 3) of 7.41 nM. For the same molecule, the IC50 (MOLM-14 cells; parental MOLM-14, FLT3-ITD, Figure 4B) was 7.87 nM, the IC50 (MV4-11 cells) was 2.01 nM and the IC50 (OCI-AML3 cells) was 1420 nM. For the same molecule, the IC50 (THP-1 cells) was 1530 nM, the “EC50, tumor growth inhibition” value (MOLM-14-MR2 tumors) was > 10 mg/kg and the IC50 (MOLM-14-MR cells) was 49.3 nM. For the same molecule, the IC50 (MOLM-14-MR2 cells) was 29.1 nM, the IC50 (MOLM-13-QR cells) was 9.68 nM and the IC50 (MOLM-13-QR2 cells) was 43 nM. For the same molecule, the IC50 [1] was 29.1 to 49.3 nM, the TGI (MV4-11 tumors; 1 mg/kg oral once per day) was 48% and the TGI (MV4-11 tumors; 3 mg/kg oral once per day) was 82%. The TGI (MV4-11 tumors; 10 mg/kg oral once per day) was 100% and the “EC90, tumor growth inhibition” value (MV4-11 tumors; oral once per day) was 5.06 mg/kg.
